Laboratory results published in US8481597B2, “Use of (-) (3-trihalomethylphenoxy) (4-halophenyl) acetic acid derivatives for treatment of insulin resistance, type 2 diabetes, hyperlipidemia and hyperuricemia” (Metabolex, Inc., priority 1999, dated 2013).
Where two headings read alike, the source gives them in different places.

Experiments:
CYP2A6 [1] = target: T1, CYP2A6 (Homo sapiens, UniProt P11509); assay: Cytochrome P450 isoform inhibition, coumarin, human hepatic microsomes (Example 18); conditions: TRAN 250 μM; 1 μM coumarin; VC 32.0 ± 1.4
T1 sequence (P11509 1-494): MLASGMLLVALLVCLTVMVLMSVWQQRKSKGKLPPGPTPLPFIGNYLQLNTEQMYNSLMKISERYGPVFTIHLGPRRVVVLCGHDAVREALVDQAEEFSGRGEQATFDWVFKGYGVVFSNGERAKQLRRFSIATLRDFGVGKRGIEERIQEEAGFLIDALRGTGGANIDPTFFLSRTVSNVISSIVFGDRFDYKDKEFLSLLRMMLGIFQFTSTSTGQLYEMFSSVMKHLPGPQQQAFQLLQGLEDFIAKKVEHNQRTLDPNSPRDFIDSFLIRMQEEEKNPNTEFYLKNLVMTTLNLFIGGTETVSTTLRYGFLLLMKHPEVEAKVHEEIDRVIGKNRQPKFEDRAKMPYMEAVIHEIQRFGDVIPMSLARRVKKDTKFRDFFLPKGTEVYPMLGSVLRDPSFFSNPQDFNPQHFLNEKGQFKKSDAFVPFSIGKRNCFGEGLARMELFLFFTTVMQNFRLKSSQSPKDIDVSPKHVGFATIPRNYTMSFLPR

CYP2A6 [2] = target: T1, CYP2A6; conditions: for 7-HC Production: both, human, 20 min
CYP1A2 = target: T2, CYP1A2 (Homo sapiens, UniProt P05177); conditions: both, 30 min
T2 sequence (P05177 1-516): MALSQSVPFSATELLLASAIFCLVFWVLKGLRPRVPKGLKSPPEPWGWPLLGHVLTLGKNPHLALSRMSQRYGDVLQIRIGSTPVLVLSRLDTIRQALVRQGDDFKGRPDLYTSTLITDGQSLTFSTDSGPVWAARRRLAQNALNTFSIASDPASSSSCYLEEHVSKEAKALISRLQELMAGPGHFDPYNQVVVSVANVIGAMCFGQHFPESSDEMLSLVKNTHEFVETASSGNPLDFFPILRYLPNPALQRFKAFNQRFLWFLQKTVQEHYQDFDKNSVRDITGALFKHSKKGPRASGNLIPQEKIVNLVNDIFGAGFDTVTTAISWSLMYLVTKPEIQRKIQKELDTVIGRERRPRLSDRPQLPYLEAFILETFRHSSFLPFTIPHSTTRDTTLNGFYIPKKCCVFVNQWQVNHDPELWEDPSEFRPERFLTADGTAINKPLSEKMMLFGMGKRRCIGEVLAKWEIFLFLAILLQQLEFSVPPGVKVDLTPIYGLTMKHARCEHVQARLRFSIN

CYP3A4 = CYP3A4 (Homo sapiens, UniProt P08684); conditions: both, 10 min
CYP2C9 = CYP2C9 (Homo sapiens, UniProt P11712); conditions: both, human, 40 min
[3] = target: cytochrome P450 2C9 (CYP2C9) (Homo sapiens, UniProt P11712); assay: Inhibition of CYP2C9 tolbutamide hydroxylation in pooled human liver microsomes (Example 7); conditions: ratio of apparent IC50
Description: Tolbutamide hydroxylation activity (100 μM ^14C-tolbutamide; 1 mM NADPH) was assayed in pooled human liver microsomes (0.6 mg protein/ml)) for 60 minutes at 37° C. both with and without test compounds.

C57BL/6J ob/ob mice = assay: Glucose lowering of (±) and (−) halofenate analogs in ob/ob mice (Example 12); format: in vivo
CYP2D6 = CYP2D6 (Homo sapiens, UniProt P10635); conditions: both, 15 min
Sequence of CYP2D6 (P10635 whole entry): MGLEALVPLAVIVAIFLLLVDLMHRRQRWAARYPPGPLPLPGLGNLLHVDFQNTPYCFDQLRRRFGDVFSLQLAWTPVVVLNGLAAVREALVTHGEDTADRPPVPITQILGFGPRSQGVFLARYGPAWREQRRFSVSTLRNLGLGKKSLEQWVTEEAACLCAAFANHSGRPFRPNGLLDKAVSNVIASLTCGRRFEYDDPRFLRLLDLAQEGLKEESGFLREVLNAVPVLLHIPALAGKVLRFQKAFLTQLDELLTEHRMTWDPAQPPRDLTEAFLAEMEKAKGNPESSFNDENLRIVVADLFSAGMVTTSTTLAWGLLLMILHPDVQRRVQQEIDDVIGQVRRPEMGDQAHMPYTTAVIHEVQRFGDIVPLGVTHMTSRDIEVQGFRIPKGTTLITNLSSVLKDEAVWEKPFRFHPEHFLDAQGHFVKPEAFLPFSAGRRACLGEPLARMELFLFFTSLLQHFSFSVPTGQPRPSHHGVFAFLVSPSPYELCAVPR

Sequence of CYP3A4 (P08684 whole entry): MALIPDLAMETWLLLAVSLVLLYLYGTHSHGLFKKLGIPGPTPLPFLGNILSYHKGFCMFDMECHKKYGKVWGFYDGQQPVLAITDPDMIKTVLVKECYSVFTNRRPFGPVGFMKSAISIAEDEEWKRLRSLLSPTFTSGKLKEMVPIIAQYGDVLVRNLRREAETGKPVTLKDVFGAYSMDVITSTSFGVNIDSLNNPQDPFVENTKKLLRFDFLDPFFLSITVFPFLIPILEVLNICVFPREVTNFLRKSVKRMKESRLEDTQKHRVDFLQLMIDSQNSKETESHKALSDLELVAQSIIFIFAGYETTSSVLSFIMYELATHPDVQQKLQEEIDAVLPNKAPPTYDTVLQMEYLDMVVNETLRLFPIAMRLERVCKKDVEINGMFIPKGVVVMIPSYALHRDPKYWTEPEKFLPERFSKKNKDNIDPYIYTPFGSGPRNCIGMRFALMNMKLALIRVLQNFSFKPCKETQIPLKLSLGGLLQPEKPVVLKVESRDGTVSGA
Sequence of CYP2C9 (P11712 whole entry): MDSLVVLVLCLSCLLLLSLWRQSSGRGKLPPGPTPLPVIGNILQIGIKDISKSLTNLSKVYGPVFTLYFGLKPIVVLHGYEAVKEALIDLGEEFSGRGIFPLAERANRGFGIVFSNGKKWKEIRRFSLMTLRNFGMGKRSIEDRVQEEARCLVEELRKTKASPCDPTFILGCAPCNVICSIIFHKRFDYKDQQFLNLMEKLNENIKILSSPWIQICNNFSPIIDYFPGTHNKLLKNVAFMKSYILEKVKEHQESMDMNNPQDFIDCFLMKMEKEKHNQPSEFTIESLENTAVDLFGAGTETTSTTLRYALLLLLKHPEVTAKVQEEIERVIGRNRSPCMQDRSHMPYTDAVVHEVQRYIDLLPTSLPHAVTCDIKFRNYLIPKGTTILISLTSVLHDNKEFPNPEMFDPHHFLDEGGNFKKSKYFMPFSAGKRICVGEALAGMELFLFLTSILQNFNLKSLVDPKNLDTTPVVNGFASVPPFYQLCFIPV
Sequence of cytochrome P450 2C9 (CYP2C9) (P11712 whole entry): as above

N[C@@H]1C[C@H]1c1ccccc1 (racemic) [TRAN, tranylcypromine, reference compound]
7-HC Production (CYP2A6 [1]): 0.00 ± 0.00 pmol/mg protein/min
% Inhibition (Coumarin, CYP2A6) (CYP2A6 [2]; microsomes): 100%

O=C(O)C(Oc1cccc(C(F)(F)F)c1)c1ccc(Cl)cc1 (single isomer, unassigned; (-)) [(−) halofenic acid, (−) 4-chlorophenyl-(3-trifluoromethylphenoxy)-acetic acid]
AC Production (CYP1A2; 0.33 μM): 116 ± 2 pmol/mg protein/min
AC Production (CYP1A2; 1 μM): 118 ± 2 pmol/mg protein/min
AC Production (CYP1A2; 3.3 μM): 119 ± 2 pmol/mg protein/min
AC Production (CYP1A2; 10 μM): 119 ± 2 pmol/mg protein/min
AC Production (CYP1A2; 33.3 μM): 119 ± 2 pmol/mg protein/min
6β-OHT Production (CYP3A4; 0.33 μM): 1816 ± 12 pmol/mg protein/min
6β-OHT Production (CYP3A4; 1 μM): 1851 ± 14 pmol/mg protein/min
6β-OHT Production (CYP3A4; 3.3 μM): 1810 ± 3 pmol/mg protein/min
6β-OHT Production (CYP3A4; 10 μM): 1819 ± 4 pmol/mg protein/min
6β-OHT Production (CYP3A4; 33.3 μM): 1816 ± 6 pmol/mg protein/min
4-OH TB Production (CYP2C9; 0.33 μM): 41.0 ± 0.9 pmol/mg protein/min
4-OH TB Production (CYP2C9; 1 μM): 38.6 ± 0.5 pmol/mg protein/min
4-OH TB Production (CYP2C9; 3.3 μM): 34.2 ± 0.2 pmol/mg protein/min
4-OH TB Production (CYP2C9; 10 μM): 22.7 ± 0.6 pmol/mg protein/min
4-OH TB Production (CYP2C9; 33.3 μM): 12.7 ± 0.2 pmol/mg protein/min
IC50 (CYP2C9; microsomes): ~11.3 µM
fold less potent than (+) halofenic acid in inhibiting CYP2C9 [3]: ~20 fold
time points with significantly lowered plasma glucose concentrations (C57BL/6J ob/ob mice; 125 mg/kg oral once a day): 6 h
6 hours Glucose (C57BL/6J ob/ob mice; 125 mg/kg oral once a day, 6 hours after first dose): 163.8 ± 11.8 mg/dL
Predose Glucose (C57BL/6J ob/ob mice; baseline before dosing, group later given 125 mg/kg oral once a day): 312.9 ± 17.7 mg/dL
DEX Production (CYP2D6; 0.33 μM): 107 ± 4 pmol/mg protein/min
DEX Production (CYP2D6; 1 μM): 110 ± 2 pmol/mg protein/min
DEX Production (CYP2D6; 3.3 μM): 104 ± 3 pmol/mg protein/min
DEX Production (CYP2D6; 10 μM): 107 ± 1 pmol/mg protein/min
DEX Production (CYP2D6; 33.3 μM): 106 ± 4 pmol/mg protein/min
7-HC Production (CYP2A6 [2]; 0.33 μM): 33.3 ± 0.7 pmol/mg protein/min
7-HC Production (CYP2A6 [2]; 1 μM): 32.6 ± 0.7 pmol/mg protein/min
7-HC Production (CYP2A6 [2]; 3.3 μM): 32.1 ± 0.7 pmol/mg protein/min
7-HC Production (CYP2A6 [2]; 10 μM): 33.1 ± 0.7 pmol/mg protein/min
7-HC Production (CYP2A6 [2]; 33.3 μM): 32.3 ± 0.7 pmol/mg protein/min
